Columns and labels:
[1] = system: CD69+B220+ cells (mouse spleen cells); experiment: B cell activation assay (IgD-stimulated CD69 on B220+ spleen cells, FACS); format: cell-based; details: 100 nM test compound, 30 min, then IgD 3 μg/mL 4 h, read-out: CD69 @ 100 nM (% Inh)
Method: 1 Female mouse approximately 2 months old was euthanized with CO2 and the spleen removed. The tissue was homogenized with a polished glass microscope slide. The cells were collected in 5 mL complete medium (RPMI+10% FBS+pen/strep), placed in a 15 mL falcon tube and centrifuged at 500×g for 5 min. The supernatant was discarded and the pellet was resuspended in 3 mL of ACK lysis buffer (NH4Cl 0.17M, KHCO3 10 mM, EDTA-Na2 0.1 mM, pH 7.2), incubated at 37° C. for 5 min. 2 mL complete medium was added and the mixture centrifuged at 500×g for 5 min. The supernatant was discarded and the pellet resuspended in 1 mL complete medium. The mixture was passed through a […] cell strainer and collect in 50 mL falcon tube. Enough medium was added to have a total of 10 mL. The cells were counted and seeded in 24 or 48-well plate in 1 mL complete medium at 10^6 cells/mL. The plate was placed in a 37° C. incubator for 15 min. The cells were treated for 30 min at 37° C. with 100 nM test compound dissolved in 100% DMSO. 3 μL IgD (Accurate chemical and scientific corp.) was added at a final concentration of 3 μg/mL and the mixture incubated at 37° C. for 4 h. The cells were collected in 1.5 mL eppendorf tubes, centrifuged at 500×g for 5 min and then resuspended in 100 μL of PBS+2% FBS. The following antibodies were added: α-B220 PE (pharmingen #553090), α-CD69 APC (pharmingen #60689), live/dead fixable aqua dead cell stain kit (life technologies # L34957) all at 1:300, and the mixture incubated for 15 min at 4° C. in the dark. To this was added 900 μL of PBS+2% FBS and the mixture centrifuged at 500×g for 5 min. The supernatant was removed and the pellet resuspended in 300 μL of PBS+2% FBS and mixed well. The mixture was transferred to a cytometer tube. The samples were run in the FACS Canto II cytometer and quantified by the number of CD69+B220+ cells as a percentage of the total number of B220+ alive cells.

[2] = system: CD69+B220+ cells (mouse spleen cells); experiment: as above; format: cell-based; details: IgD 3 μg/mL 4 h

C=CC(=O)N(CCn1nc(-c2cc(O)cc(F)c2)c2c(N)ncnc21)Cc1ccc(F)cc1 [Compound 10, N-{2-[4-amino-3-(3-fluoro-5-hydroxyphenyl)-1H-pyrazolo [3,4-d]pyrimidin-1-yl]ethyl}-N-[(4-fluorophenyl)methyl]prop-2-enamide]
inhibition at 0.1 µM [1]: -23.7 ± 39.7%

C=CC(=O)N(CCn1nc(-c2cc(O)c(F)c(F)c2)c2c(N)ncnc21)Cc1ccc(Cl)cc1 [Compound 16, N-{2-[4-amino-3-(3,4-difluoro-5-hydroxyphenyl)-1H-pyrazolo[3,4-d]pyrimidin-1-yl]ethyl}-N-[(4-chlorophenyl)methyl]prop-2-enamide]
inhibition at 0.1 µM [1]: -44.8 ± 29.4%

C=CC(=O)N(CCn1nc(-c2cc(O)cc(F)c2)c2c(N)ncnc21)Cc1ccccc1 [Compound 5, N-(2-(4-amino-3-(3-fluoro-5-hydroxyphenyl)-1H-pyrazolo[3,4-d]pyrimidin-1-yl)ethyl)-N-benzylacrylamide]
inhibition at 0.1 µM [1]: 12.5 ± 22.3%

Nc1ncnc2c1c(-c1cc(O)cc(F)c1)nn2CCNc1ccccc1 [Compound 1, 3-(4-amino-1-(2-(phenylamino)ethyl)-1H-pyrazolo [3,4-d]pyrimidin-3-yl)-5-fluorophenol]
inhibition at 0.1 µM [1]: 74.5 ± 6.72%
IC50 [2]: 55.1 ± 38.3 nM

C=CC(=O)N(CCn1nc(-c2cc(O)cc(F)c2)c2c(N)ncnc21)Cc1ccc(Cl)cc1 [Compound 12, N-{2-[4-amino-3-(3-fluoro-5-hydroxyphenyl)-1H-pyrazolo[3,4-d]pyrimidin-1-yl]ethyl}-N-[(4-chlorophenyl)methyl]prop-2-enamide]
inhibition at 0.1 µM [1]: -44.7 ± 53.6%

C=CC(=O)N(CCn1nc(-c2cc(O)cc(F)c2)c2c(N)ncnc21)c1ccccc1 [Compound 2, N-(2-(4-amino-3-(3-fluoro-5-hydroxyphenyl)-1H-pyrazolo[3,4-d]pyrimidin-1-yl)ethyl)-N-phenylacrylamide]
inhibition at 0.1 µM [1]: -114 ± 72.2%

C=CC(=O)N(CCn1nc(-c2cc(O)cc(F)c2)c2c(N)ncnc21)Cc1ccccc1F [Compound 11, N-[2-[4-amino-3-(3-fluoro-5-hydroxy-phenyl)pyrazolo[3,4-d]pyrimidin-1-yl]ethyl]-N-[(2-fluorophenyl)methyl]prop-2-enamide]
inhibition at 0.1 µM [1]: -23.7 ± 39.7%
